The results in this text go back to ChEMBL document CHEMBL5625219, “Design, synthesis fusidic acid derivatives alleviate acute lung injury via inhibiting MAPK/NF-κB/NLRP3 pathway” (Eur J Med Chem, 2023).

As usually defined, the IC50 is the midpoint of a concentration-inhibition curve. A higher IC50 goes with a need for much substance.

Experiment [1] concerns Mus musculus. As to the kind of experiment: In vivo inhibition of MAPK activation in LPS-induced BALB/c mouse model of […] assessed as inhibition of JNK phosphorylation preadministered orally with compound for 3 days followed by LPS stimulation for 6 hrs after 1 hrs compound administration on day 3 by Western blot analysis. In kind it is functional. Particulars: dose 5-20 mg/kg, route po, time 3.0 day. On the technique in general: Immunoblotting shows a protein as a band on a membrane.

Experiment [2] deals with Mus musculus. As to the kind of experiment: In vivo inhibition of MAPK activation in LPS-induced BALB/c mouse model of […] assessed as inhibition of p38 MAPK phosphorylation preadministered orally with compound for 3 days followed by LPS stimulation for 6 hrs after 1 hrs compound administration on day 3 by Western blot analysis. In kind it is functional. Particulars: dose 5-20 mg/kg, route po, time 3.0 day.

Experiment [3] has as its target NACHT, LRR and PYD domains-containing protein 3 (Mus musculus) (UniProt Q8R4B8). As to the kind of experiment: Inhibition of NLRP3 inflammasome activation in LPS-stimulated mouse RAW264.7 cells assessed as decrease in caspase-1 expression at 2.5 to 10 uM by Western blot analysis. Particulars: dose 2.5-10 µM. It is filed as cell-based.
Another experiment has as its system RAW264.7. Nature of the experiment: cells. Particulars: Mus musculus.
Experiment [4] relates to Mus musculus. Nature of the experiment: Anti-inflammatory activity in LPS-induced BALB/c mouse model of […] assessed as inhibition of iNOS expression preadministered orally with compound for 3 days followed by LPS stimulation for 6 hrs after 1 hrs compound administration on day 3 by Western blot analysis. In kind it is functional, organism-based. Particulars: dose 5-20 mg/kg, route po, time 3.0 day.

Experiment [5] deals with Mus musculus. As to the kind of experiment: Anti-inflammatory activity in LPS-induced BALB/c mouse model of […] assessed as inhibition of LPS-induced increase in IL-6 expression in BALF at 5 to 20 mg/kg, po preadministered with compound for 3 days followed by LPS stimulation for 6 hrs after 1 hrs compound administration on day 3 by ELISA. In kind it is functional, organism-based. Particulars: dose 5-20 mg/kg, time 3.0 day. On the technique in general: In an ELISA, binding on a coated surface is turned into a signal by an enzyme label.

For experiment [6], the system named is Mus musculus. As to the kind of experiment: In vivo inhibition of NLRP3 inflammasome activation in LPS-induced BALB/c mouse model of […] assessed as reduction in caspase-1 expression preadministered orally with compound for 3 days followed by LPS stimulation for 6 hrs after 1 hrs compound administration on day 3 by Western blot analysis. It is filed as functional. The following applies: dose 5-20 mg/kg, route po, time 3.0 day.

Experiment [7] relates to Mus musculus. As to the kind of experiment: In vivo inhibition of NLRP3 inflammasome activation in LPS-induced BALB/c mouse model of […] assessed as reduction in NLRP3 expression preadministered orally with compound for 3 days followed by LPS stimulation for 6 hrs after 1 hrs compound administration on day 3 by Western blot analysis. In kind it is functional. The following applies: dose 5-20 mg/kg, route po, time 3.0 day.

Calls of active or inactive are those of the source. The rule behind the calls is not given here.

Sequence of NACHT, LRR and PYD domains-containing protein 3 (Mus musculus) (Q8R4B8 whole entry, the tested form may be a part): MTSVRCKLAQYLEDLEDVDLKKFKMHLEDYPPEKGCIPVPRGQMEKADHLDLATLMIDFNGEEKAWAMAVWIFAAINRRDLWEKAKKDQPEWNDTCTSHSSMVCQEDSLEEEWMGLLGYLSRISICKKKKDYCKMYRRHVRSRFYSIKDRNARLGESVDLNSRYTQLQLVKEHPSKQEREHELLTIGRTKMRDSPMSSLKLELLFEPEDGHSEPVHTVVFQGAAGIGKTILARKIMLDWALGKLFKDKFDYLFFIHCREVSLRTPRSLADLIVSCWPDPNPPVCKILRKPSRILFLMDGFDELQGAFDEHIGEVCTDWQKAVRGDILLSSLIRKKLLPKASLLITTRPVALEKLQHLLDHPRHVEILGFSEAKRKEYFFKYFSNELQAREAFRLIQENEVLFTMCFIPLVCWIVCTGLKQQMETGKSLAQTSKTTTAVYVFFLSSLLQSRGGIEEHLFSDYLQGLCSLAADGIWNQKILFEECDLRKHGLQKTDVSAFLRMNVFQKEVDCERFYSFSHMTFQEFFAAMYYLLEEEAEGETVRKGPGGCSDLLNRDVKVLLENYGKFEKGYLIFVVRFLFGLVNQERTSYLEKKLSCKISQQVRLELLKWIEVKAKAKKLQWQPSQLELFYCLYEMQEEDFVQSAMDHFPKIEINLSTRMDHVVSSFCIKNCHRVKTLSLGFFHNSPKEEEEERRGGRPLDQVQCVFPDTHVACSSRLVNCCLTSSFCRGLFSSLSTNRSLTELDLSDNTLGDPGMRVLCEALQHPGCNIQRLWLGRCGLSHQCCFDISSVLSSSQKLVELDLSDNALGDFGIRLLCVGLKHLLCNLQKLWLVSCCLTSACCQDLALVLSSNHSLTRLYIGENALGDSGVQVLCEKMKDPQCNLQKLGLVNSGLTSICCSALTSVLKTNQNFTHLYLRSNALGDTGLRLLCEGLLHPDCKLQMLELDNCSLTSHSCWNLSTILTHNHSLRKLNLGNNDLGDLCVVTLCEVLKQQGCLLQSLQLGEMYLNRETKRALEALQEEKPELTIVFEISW
Description for RAW264.7: Anti-inflammatory activity in mouse RAW264.7 cells assessed as inhibition of LPS-induced NO production preincubated with compound for 1 hrs followed by LPS stimulation and measured after 23 hrs by Griess reagent based method

For `CC(=O)O[C@H]1C[C@@]2(C)[C@@H](C[C@@H](O)[C@H]3[C@@]4(C)CC[C@@H](O)[C@@H](C)[C@@H]4CC[C@@]32C)/C1=C(\CCC=C(C)C)C(=O)OCc1cn(-c2ccccc2)nn1`, the inhibition entry in the experiment with Mus musculus [1], in the experiment on Mus musculus [2], in the experiment on Mus musculus [6] and in the experiment on Mus musculus [7] was “Dose-Dependent Effect” throughout. Further, the inhibition entry in experiment [3] was “Active”. Half-maximal inhibition with RAW264.7 (IC50) required 3.26 µM. Moreover, the Activity entry in the experiment with Mus musculus [4] is “Dose-Dependent Effect”. Moreover, the outcome in the experiment on Mus musculus [5] was Active.
